The subject of assay [1] is S. typhimurium. Format: cell-based. Particulars: 24 h.
For assay [2], the system named is S. typhimurium (strain Xen33). In words: In vivo S. typhimurium (Xen33) infection and disease progression in FVB mice. The method, then: For the in vivo studies, mouse S. typhimurium (strain Xen33) infection carried out as per the previous protocol of Griffin et al., 2011. In brief, mice were pre-treated with streptomycin. Water and food were withdrawn before 4hours of infection. For the experiments, 6-8 weeks of FVB male mice were utilized in a group of 5. Mice related experiments and its maintenance were carried out in a small animal facility at THSTI, Faridabad. […] FVB mice were infected orally with Xen-33(S. typhimurium) and its bioluminescence was measured by in vivo imaging with IVIS Lumina (Perkin Elmer) and quantified with living image software version 4.2. Bioluminescent levels were measured as radiance (p/sec/cm^2/sr), by using a pseudo scale for measurement in which blue represents low intensity and red represents high intensity. Posts in vivo imaging, the bacterial burden in faecal sample were also measured.
Mice having Salmonella typhimurium infection or non-infected were sacrificed and their intestine was removed for immunohistochemistry studies. Intestines were washed with PBS and fixed in 10% formaldehyde. Thereafter, fine-sectioned on a microtome. Tissue blocks were prepared on Paraffin wax and then hematoxylin and eosin (HE) staining was carried out. The finally stained sections were then observed, and images were acquired by using the Ti Eclipse Nikon microscope. The scoring was done by random scoring by different individuals.
In vivo effect of p7T treatment on S. typhimurium infection and disease progression in FVB mice. Recovery of chronically S. typhimurium infected FVB mice was studied in the presence of P7T&P13T. […] Colon samples were further examined for histological changes. […] The stool was collected, plated on SS agar to determine S. typhimurium colony formation.
(c) In vivo imaging and intensity quantitation of mice infected with S. typhimurium strain (Xen33) expressing luciferase on the 8th day (n=5 mice per group). […] (i) Immunohistochemistry images (40×) showing expression of HIF-1α and its quantification in the colon (n=5). […] Data representative of triplicates and repeated three times each individual experiments*P<0.05, **P <0.01, ***P<0.001, **** P<0.0001, ns, non-significant. (Student's t-test and one-way ANOVA).

Assay [3] concerns mTOR. In words: mTOR independent activation of autophagy: western blot of S6Kinase / 4E-BP1 phosphorylation. To be noted: Huh7 cells, peptides 10 μM, 6 h. The format is cell-based. The method, then: FIG. 5 depicts mTOR independent activation of autophagy Huh7 cells were treated with peptides (10 μM) and torin1 (1 μM) for 6 h and lysed in lysis buffer (1mM EDTA, 20 mM Tris-HCl pH 7.4, 250 mM NaCl, PMSF, and PI). Western blot was performed by GAPDH (internal control), […] and S6K1 antibodies. The peptides were tested for inhibition of mTOR by testing for phosphorylation of enzyme p70S6K. The phosphorylation of p-p70S6K at threonine 389 has been used as a hallmark of activation by mTOR.
Huh7/HeLa cells were treated with peptides 10 μM for 6 h and protein lysates were analysed by western blotting using pS6Kinase, S6Kinase, p-4E-BP1, 4E-BP1 and GAPDH antibodies. Torin 1 was used as positive control.

In assay [4] the target is T1, GAPR-1 (UniProt Q9H4G4 2-154, limits assumed).
T1 construct: Purified protein used in MST; also called purified Gapr-1
T1 sequence (looked up): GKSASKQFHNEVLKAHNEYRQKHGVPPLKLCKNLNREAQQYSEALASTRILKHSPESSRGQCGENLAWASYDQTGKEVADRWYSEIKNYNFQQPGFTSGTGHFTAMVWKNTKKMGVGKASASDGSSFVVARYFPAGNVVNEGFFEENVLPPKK
In words: MicroScale Thermophoresis (MST), purified Gapr-1. Background: In MST a laser heats a spot of the sample, and binding alters the fluorescence response.

Assay [5] concerns the target T1, GAPR-1. Nature of the assay: MicroScale Thermophoresis (MST), peptide titrated on purified Gapr-1; fraction bound against peptide conc. (M) [3A].
The mark [6] stands for this setting: FVB mice infected with S. typhimurium.

Where a SMILES comes first, the peptide text is derived from it.

From patent US20230321188A1, “AUTOPHAGY INDUCING PEPTIDES” (TRANSLATIONAL HEALTH SCIENCE AND TECHNOLOGY INSTITUTE, priority 2020, published 2023) come the findings set out here.

As for `NC(=O)C[C@H](NC(=O)CNC(=O)[C@H](Cc1ccc(O)cc1)NC(=O)[C@@H]1CCCN1)C(=O)N[C@@H](Cc1c[nH]cn1)C(=O)N[C@@H](CO)C(=O)N[C@@H](Cc1ccc(O)cc1)C(=O)O` [P3T] (H-PYGNHSY-OH; N-terminus and C-terminus assumed), in assay [1], the “inhibition of S. typhimurium” value came out at 49.5%.
On to `CC[C@H](C)[C@H](NC(=O)[C@@H](NC(=O)CNC(=O)[C@@H](N)Cc1ccccc1)[C@@H](C)O)C(=O)N[C@@H](CC(N)=O)C(=O)N[C@@H](CC(N)=O)C(=O)N[C@@H](Cc1ccccc1)C(=O)N[C@@H](CCCNC(=N)N)C(=O)N[C@@H](CC(C)C)C(=O)O` [P7T] (H-FGTINNFRL-OH), for which, in assay [2] (FVB mice infected orally with Xen-33, stool plated on SS agar), the “bacterial burden in faecal sample / stool” value was “significant decrease in bacterial burden”. Also, in assay [2] (setting [6]), the “length of the colon” value is given as “significantly reduced in untreated mice compare to P7T” and the splenomegaly entry is on record as “difference in splenomegaly was not observed”. The histopathology score result in assay [2] (intestine/colon H&E staining, FVB mice infected with S. typhimurium) is on record as “significantly less”. Further, in assay [3], the “interference with phosphorylation of p70S6K and mTOR activity” value (shortened to “interference with phosphorylation”) is “did not interfere with the phosphorylation of p70S6K and mTOR activity”.
Take `CC(C)C[C@H](NC(=O)CNC(=O)CNC(=O)[C@H](CO)NC(=O)[C@H](CS)NC(=O)[C@H](Cc1ccc(O)cc1)NC(=O)[C@@H](N)CC(C)C)C(=O)N[C@@H](CCCNC(=N)N)C(=O)N[C@@H](Cc1ccccc1)C(=O)N[C@@H](Cc1ccccc1)C(=O)N[C@@H](Cc1c[nH]c2ccccc12)C(=O)N[C@@H](CC(=O)O)C(=O)O` [P8T] (H-LYCSGGLRFFWD-OH): in assay [1], the “inhibition of S. typhimurium” value was 62.16%.
In the case of `CC(C)C[C@H](NC(=O)[C@H](C)NC(=O)[C@H](Cc1c[nH]cn1)NC(=O)[C@H](CC(C)C)NC(=O)[C@H](CC(C)C)NC(=O)[C@H](CC(C)C)NC(=O)[C@@H](NC(=O)[C@@H](NC(=O)[C@@H](N)CCC(N)=O)[C@@H](C)O)C(C)C)C(=O)O` [P9T] (H-QTVLLLHAL-OH), the “interference with phosphorylation” value in assay [3] was “did not interfere with the phosphorylation of p70S6K and mTOR activity”.
For the molecule `CC(C)C[C@H](NC(=O)[C@H](Cc1ccc(O)cc1)NC(=O)[C@H](CO)NC(=O)[C@H](Cc1c[nH]cn1)NC(=O)[C@H](CC(N)=O)NC(=O)CNC(=O)[C@H](Cc1ccc(O)cc1)NC(=O)[C@@H]1CCCN1C(=O)[C@@H](NC(=O)[C@H](CC(C)C)NC(=O)[C@@H](N)CCCNC(=N)N)C(C)C)C(=O)N[C@@H](CCC(=O)O)C(=O)N[C@@H](CO)C(=O)O` [P13T] (H-RLVPYGNHSYLES-OH), the “interference with phosphorylation” value in assay [3] was “did not interfere with the phosphorylation of p70S6K and mTOR activity”.

B1: P13T (peptide)
peptide: RLVPYGNHSYLES
notes: also called peptide P13T
As to B1, the affinity in assay [4], expressed as Kd, was 70 nM.

B2: P8T (peptide)
peptide: LYCSGGLRFFWD
notes: also called peptide P8T
Consider B2, for which the Kd (in general, the equilibrium constant for the complex coming apart) in assay [4] came out at 120 nM.

B3: P7T (peptide)
peptide: FGTINNFRL
notes: also called peptide P7T
In assay [4], B3 returned a dissociation constant (Kd) of 130 nM.

B4: P3T (peptide)
peptide: PYGNHSY
notes: also called peptide P3T
Turning to B4, binding in assay [5] was characterised by a dissociation constant (Kd) of 210 nM.

B5: P9T (peptide)
peptide: QTVLLLHAL
notes: also called peptide P9T
As for B5, the dissociation constant (Kd) in assay [4] was 1560 nM.
